# Test results taken from patent publication EP4667458A1 (Kanaph Therapeutics Inc., priority 2023, dated 2024).
# Target: T1, KRAS^G12C::SOS1 (Homo sapiens, UniProt Q07889)
# T1 sequence (Q07889 1-1333): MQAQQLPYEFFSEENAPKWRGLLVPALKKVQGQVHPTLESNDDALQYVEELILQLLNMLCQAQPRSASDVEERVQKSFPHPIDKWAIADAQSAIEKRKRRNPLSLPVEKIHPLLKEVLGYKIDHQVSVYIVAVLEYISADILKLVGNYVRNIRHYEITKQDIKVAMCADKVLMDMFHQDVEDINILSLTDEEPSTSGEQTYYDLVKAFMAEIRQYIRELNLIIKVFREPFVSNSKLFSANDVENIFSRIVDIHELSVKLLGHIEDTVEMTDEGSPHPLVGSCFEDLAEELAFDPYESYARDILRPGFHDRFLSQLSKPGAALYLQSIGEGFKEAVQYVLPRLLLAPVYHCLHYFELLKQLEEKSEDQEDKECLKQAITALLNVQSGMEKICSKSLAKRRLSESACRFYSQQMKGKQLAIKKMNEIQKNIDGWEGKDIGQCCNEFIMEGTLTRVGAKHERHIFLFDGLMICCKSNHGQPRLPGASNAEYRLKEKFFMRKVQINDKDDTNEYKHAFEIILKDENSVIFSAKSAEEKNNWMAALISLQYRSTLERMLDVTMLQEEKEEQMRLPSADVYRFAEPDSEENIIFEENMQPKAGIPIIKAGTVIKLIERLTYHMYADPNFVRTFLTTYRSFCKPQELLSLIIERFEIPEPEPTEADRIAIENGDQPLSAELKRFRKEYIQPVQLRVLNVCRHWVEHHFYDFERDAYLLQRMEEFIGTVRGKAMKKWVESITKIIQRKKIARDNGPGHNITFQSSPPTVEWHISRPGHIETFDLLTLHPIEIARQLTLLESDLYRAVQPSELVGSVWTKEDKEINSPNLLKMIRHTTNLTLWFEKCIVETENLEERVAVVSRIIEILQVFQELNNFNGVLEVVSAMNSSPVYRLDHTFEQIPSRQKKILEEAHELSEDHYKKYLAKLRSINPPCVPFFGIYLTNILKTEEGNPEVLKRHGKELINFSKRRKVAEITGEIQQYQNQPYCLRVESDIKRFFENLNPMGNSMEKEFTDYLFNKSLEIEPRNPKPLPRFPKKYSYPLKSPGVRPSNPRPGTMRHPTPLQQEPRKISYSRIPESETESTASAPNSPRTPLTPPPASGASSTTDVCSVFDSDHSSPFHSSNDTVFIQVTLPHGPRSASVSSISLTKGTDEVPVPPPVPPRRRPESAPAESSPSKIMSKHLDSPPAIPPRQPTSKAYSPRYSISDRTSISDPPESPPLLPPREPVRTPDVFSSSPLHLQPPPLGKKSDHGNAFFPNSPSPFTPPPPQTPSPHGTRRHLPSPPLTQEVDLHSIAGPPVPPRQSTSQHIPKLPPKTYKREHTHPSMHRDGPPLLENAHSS
# Assay: KRAS G12C::SOS1 protein-protein interaction (PPI) inhibition assay (HTRF binding kit)
row,IC50,SMILES
1,< 1000 nM,"C[C@@H](NC(=O)c1ccc(=O)n(-c2cccc(-c3cncs3)c2)n1)c1cc(N)cc(C(F)(F)F)c1 [Example 341, N-[(1R)-1-[3-amino-5-(trifluoromethyl)phenyl]ethyl]-6-oxo-1-(3-thiazol-5-ylphenyl)pyridazine-3-carboxamide]"
2,< 1000 nM,"C[C@@H](NC(=O)c1ccc(=O)n(-c2cccc(C(=O)N(C)C)c2F)n1)c1cccc(C(F)(F)CO)c1F [Example 353, N-[(1R)-1-[3-(1,1-difluoro-2-hydroxy-ethyl)-2-fluoro-phenyl]ethyl]-1-[3-(dimethylcarbamoyl)-2-fluoro-phenyl]-6-oxo-pyridazine-3-carboxamide]"
3,< 1000 nM,"C[C@@H](NC(=O)c1ccc(=O)n(-c2cccc(-c3ncnn3C)c2)n1)c1cc(N)cc(C(F)(F)F)c1 [Example 328, N-[(1R)-1-[3-amino-5-(trifluoromethyl)phenyl]ethyl]-1-[3-(2-methyl-1,2,4-triazol-3-yl)phenyl]-6-oxo-pyridazine-3-carboxamide]"
4,< 1000 nM,"C[C@@H](NC(=O)c1ccc(=O)n(-c2cccc(C(=O)N3CCCC3)c2)n1)c1cccc(C(F)(F)CO)c1F [Example 194, N-[(1R)-1-[3-(1,1-difluoro-2-hydroxy-ethyl)-2-fluoro-phenyl]ethyl]-6-oxo-1-[3-(pyrrolidine-1-carbonyl)phenyl]pyridazine-3-carboxamide]"
5,< 1000 nM,"C[C@@H](NC(=O)c1ccc(=O)n(-c2cccnc2F)c1)c1cccc(C(F)(F)CO)c1F [Example 147, N-[(1R)-1-[3-(1,1-difluoro-2-hydroxy-ethyl)-2-fluoro-phenyl]ethyl]-1-(2-fluoro-3-pyridyl)-6-oxo-pyridine-3-carboxamide]"
6,< 1000 nM,"C[C@@H](NC(=O)c1nn(-c2ccccc2)c(=O)c2cc[nH]c12)c1cc(N)cc(C(F)(F)F)c1 [Example 308, N-[(1R)-1-[3-amino-5-(trifluoromethyl)phenyl]ethyl]-4-oxo-5-phenyl-1H-pyrrolo [2,3-d] pyridazine-7-carboxamide]"
7,< 1000 nM,"C[C@@H](NC(=O)c1ccc(=O)n(-c2cccc(-c3ncn(C)n3)c2)n1)c1cc(N)cc(C(F)(F)F)c1 [Example 323, N-[(1R)-1-[3-amino-5-(trifluoromethyl)phenyl]ethyl]-1-[3-(1-methyl-1,2,4-triazol-3-yl)phenyl]-6-oxo-pyridazine-3-carboxamide]"
8,< 1000 nM,"COc1ccc(-n2cc(C(=O)N[C@H](C)c3cccc(C(F)(F)CO)c3F)ccc2=O)c(F)c1 [Example 179, N-[(1R)-1-[3-(1,1-difluoro-2-hydroxy-ethyl)-2-fluoro-phenyl]ethyl]-1-(2-fluoro-4-methoxyphenyl)-6-oxo-pyridine-3-carboxamide]"
9,< 1000 nM,"C[C@@H](NC(=O)c1ccc(=O)n(-c2cccc(C(=O)N3CCN(C)CC3)c2)n1)c1cc(N)cc(C(F)(F)F)c1 [Example 255, N-[(1R)-1-[3-amino-5-(trifluoromethyl)phenyl]ethyl]-1-[3-(4-methylpiperazine-1-carbonyl)phenyl]-6-oxo-pyridazine-3-carboxamide]"
10,< 1000 nM,"C[C@@H](NC(=O)c1ccc(=O)n(-c2ccccc2F)n1)c1cccc(C(F)(F)CN)c1F [Example 243, N-[(1R)-1-[3-(2-amino-1,1-difluoro-ethyl)-2-fluoro-phenyl]ethyl]-1-(2-fluorophenyl)-6-oxo-pyridazine-3-carboxamide]"
11,< 1000 nM,"Cc1nc(-n2nc(C(=O)N[C@H](C)c3cc(N)cc(C(F)(F)F)c3)ccc2=O)cs1 [Example 386, N-[(1R)-1-[3-amino-5-(trifluoromethyl)phenyl]ethyl]-1-(2-methylthiazol-4-yl)-6-oxo-pyridazine-3-carboxamide]"
12,< 1000 nM,"C[C@@H](NC(=O)c1nn(-c2ccccc2F)c(=O)c2ccsc12)c1cccc(C(F)(F)CO)c1F [Example 310, N-[(1R)-1-[3-(1,1-difluoro-2-hydroxy-ethyl)-2-fluoro-phenyl]ethyl]-5-(2-fluorophenyl)-4-oxo-thieno[2,3-d]pyridazine-7-carboxamide]"
13,< 1000 nM,"CNCc1ccccc1-c1ccc([C@@H](C)NC(=O)c2ccc(=O)n(-c3cccnc3F)n2)s1 [Example 412, 1-(2-fluoropyridin-3-yl)-N-[(1R)-1-(5-{2-[(methylamino)methyl]phenyl}thiophen-2-yl)ethyl]-6-oxo-1,6-dihydropyridazine-3-carboxamide]"
14,1000 to 10000 nM,"C[C@@H](NC(=O)c1ccc(=O)n(-c2cccnc2)c1)c1cccc(C(F)(F)CO)c1F [Example 175, N-[(1R)-1-[3-(1,1-difluoro-2-hydroxy-ethyl)-2-fluoro-phenyl]ethyl]-6-oxo-1-(3-pyridyl)pyridine-3-carboxamide]"
15,< 1000 nM,"C[C@@H](NC(=O)c1ccc(=O)n(-c2cccc(-c3ccn[nH]3)c2)n1)c1cc(N)cc(C(F)(F)F)c1 [Example 329, N-[(1R)-1-[3-amino-5-(trifluoromethyl)phenyl]ethyl]-6-oxo-1-[3-(1H-pyrazol-5-yl)phenyl]pyridazine-3-carboxamide]"
16,1000 to 10000 nM,"C[C@@H](NC(=O)c1ccc(=O)n(-c2ccccc2F)n1)c1cc(N)cc(C#N)c1F [Example 216, N-[(1R)-1-(5-amino-3-cyano-2-fluoro-phenyl)ethyl]-1-(2-fluorophenyl)-6-oxo-pyridazine-3-carboxamide]"
17,1000 to 10000 nM,"C[C@@H](NC(=O)c1ccc(=O)n(-c2ccccc2F)n1)c1cc(N)cc(C(F)(F)F)n1 [Example 395, N-[(1R)-1-[4-amino-6-(trifluoromethyl)-2-pyridyl]ethyl]-1-(2-fluorophenyl)-6-oxo-pyridazine-3-carboxamide]"
18,< 1000 nM,"CNCc1ccc(F)cc1-c1ccc([C@@H](C)NC(=O)c2ccc(=O)n(-c3cccnc3NC)n2)s1 [Example 302, N-[(1R)-1-[5-[5-fluoro-2-(methylaminomethyl)phenyl]-2-thienyl]ethyl]-1-[2-(methylamino)-3-pyridyl]-6-oxo-pyridazine-3-carboxamide]"
19,> 10000 nM,"C[C@@H](NC(=O)c1ccc(=O)n(-c2ccccc2F)n1)c1cccc(F)c1Cl [Example 261, N-[(1R)-1-(2-chloro-3-fluoro-phenyl)ethyl]-1-(2-fluorophenyl)-6-oxo-pyridazine-3-carboxamide]"
20,< 1000 nM,"C[C@@H](NC(=O)c1ccc(=O)n(-c2ccncc2F)n1)c1cccc(C(F)(F)CO)c1F [Example 361, N-[(1R)-1-[3-(1,1-difluoro-2-hydroxy-ethyl)-2-fluoro-phenyl]ethyl]-1-(3-fluoro-4-pyridyl)-6-oxo-pyridazine-3-carboxamide]"
21,< 1000 nM,"CNCc1ccc(F)cc1-c1ccc([C@@H](C)NC(=O)c2ccc(=O)n(-c3cccnc3F)n2)s1 [Example 288, N-[(1R)-1-[5-[5-fluoro-2-(methylaminomethyl)phenyl]-2-thienyl]ethyl]-1-(2-fluoro-3-pyridyl)-6-oxo-pyridazine-3-carboxamide]"
22,< 1000 nM,"CNCc1ccccc1-c1ccc([C@@H](C)NC(=O)c2nn(-c3cnn(C)c3)c(=O)c3cc[nH]c23)s1 [Example 275, N-[(1R)-1-[5-[2-(methylaminomethyl)phenyl]-2-thienyl]ethyl]-5-(1-methylpyrazol-4-yl)-4-oxo-1H-pyrrolo[2,3-d]pyridazine-7-carboxamide]"
23,< 1000 nM,CNCc1c(F)cccc1-c1ccc([C@@H](C)NC(=O)c2ccc(=O)n(-c3cccnc3F)n2)s1 [Example 409]
24,< 1000 nM,C[C@@H](NC(=O)c1ccc(=O)n(-c2cccnc2F)n1)c1ccc(-c2cc(F)ccc2CN)s1 [Example 404]
25,< 1000 nM,"C[C@@H](NC(=O)c1ccc(=O)n(-c2cccc(-c3nnco3)c2)n1)c1cc(N)cc(C(F)(F)F)c1 [Example 235, N-[(1R)-1-[3-amino-5-(trifluoromethyl)phenyl]ethyl]-1-[3-(1,3,4-oxadiazol-2-yl)phenyl]-6-oxo-1,6-dihydropyridazine-3-carboxamide]"
26,1000 to 10000 nM,"COc1ccc(-n2nc(C(=O)N[C@H](C)c3cc(N)cc(C(F)(F)F)c3)c(C3CC3)cc2=O)c(F)c1 [Example 367, N-[(1R)-1-[3-amino-5-(trifluoromethyl)phenyl]ethyl]-4-cyclopropyl-1-(2-fluoro-4-methoxy-phenyl)-6-oxo-pyridazine-3-carboxamide]"
